This series can be described thus: gradient 5% acetonitrile 3 min, to 50% in 2 min, to 85% in 15 min, held 3 min, 100 µL/min. The settings on record: column: Zorbax Extend-C18 2.1 x 50 mm; eluents: water / acetonitrile, 0.1% formic acid. Put shortly: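 Mixtures of ~100 pure standards were chromatographed on a Zorbax Extend-C18 column (2.1 × 50 mm, 1.8 μm) at 100 μL/min using water and acetonitrile, each with 0.1% formic acid. Detection used a quadrupole time-of-flight mass spectrometer in positive and negative ionization mode, and data collection spanned 3 months. Retention time was obtained from adduct peaks picked computationally and each checked manually.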
`COc1cccc(C(=O)NCCCn2cccc2)c1` displayed an RP-LC retention time of 749 s. Then `COc1ccc(N2CCN(c3nc(C(=O)N4CCCC4)cs3)CC2)cc1`, with 853 s; and `Cc1ccc(-c2nc3cnccn3c2NCCC(=O)O)cc1`, with 610 s. Under `CNC(=O)c1ccsc1NC(=O)c1coc2ccccc2c1=O` stands 709 s; under `CCOC(=O)N1CCN(C(=O)Cn2c(-c3ccccn3)nc3ccccc32)CC1`, 643 s. Under `CCOc1ccccc1NC(=O)Cn1cnc2nc(N3CCC(C(=O)NC4CC4)CC3)sc2c1=O` stands 696 s. In turn, `N#CC1(c2ccc(NC(=O)c3cccnc3NCc3ccncc3)cc2)CCCC1` displayed an RP-LC retention time of 734 s. For the molecule `O=C(NCCN1CCN(c2ccc(Cl)cc2)CC1)C(=O)Nc1cc(F)ccc1F`, the RP-LC retention time amounted to 613 s. Then `CCC1CCCCN1C(=O)c1cnc2nc(C)ccc2c1Nc1cc(OC)cc(OC)c1` (centres undefined), with 674 s; and `CCn1c(=O)c2ccn(CC(=O)NCc3ccc(SC)cc3)c2n(CC)c1=O`, with 744 s; and `COc1cc([C@H]2c3cc4c(cc3[C@@H](O)[C@H](CO)[C@H]2C(=O)N2CCCc3ccccc32)OCO4)cc(OC)c1OC`, with 734 s. On to `CCn1cc(-c2nc(CC(=O)NCc3ccc(Cl)cc3)cs2)c2cccnc21`, for which the RP-LC retention time is 904 s. Under `O=C(Cc1csc2nc(-c3ccccc3)cn12)Nc1cccc(Br)c1` stands 906 s; under `CC1CN(c2nc3ccccc3nc2C(C#N)C(=O)OCc2ccccc2)CC(C)O1` (centres undefined), 1140 s.

Consider `Cn1cnc(S(=O)(=O)NCCN2C(=O)C3(CCCCC3)C2c2ccccc2)c1` (centres undefined), for which the RP-LC retention time stood at 722 s. As to `Cc1cc(C)cc(NC(=O)C2CCCN2S(=O)(=O)c2ccc3c(c2)CCCC(=O)N3)c1` (centres undefined), the RP-LC retention time came out at 835 s.

With `Fc1ccc(Cn2cc(-c3noc(-c4ccc5c(c4)OCO5)n3)nn2)cc1`, the RP-LC retention time was 937 s. Under `Cc1ccc(-c2ncc(C(=O)N3CC=C(c4ccccc4)CC3)c(-c3ccncc3)n2)cc1` stands 1110 s. Then `O=C(Cn1cccc1-c1nnc(C2CCC2)o1)Nc1ccccc1`, with 862 s.

As to `O=C(CC1CCN(C(=O)C2CCCCC2)CC1)NCCCN1CCCC1`, the RP-LC retention time is 595 s. In the case of `CCOCC(=O)N1CCc2nc(N3CCN(C)CC3)sc2C1`, the RP-LC retention time is 557 s. Then `CC1=CS/C(=C(/C#N)C(=O)N2CCOCC2)N1c1ccccc1`, with 635 s. Then `CCCc1nc(-c2c(C)cc(C)nc2NC(=O)c2ccc(C)cc2)no1`, with 893 s; and `Cc1cccc(S(=O)(=O)N2CCN(c3cc(C)nc(NC4CCCCC4)n3)CC2)c1`, with 860 s. Under `CC(=O)Nc1ccc(NC(=O)c2ccc(-c3ccnc(N4CCCC4)n3)cc2)cc1` stands 663 s. On to `Clc1cc(N2CCSCC2)ncn1`, for which the RP-LC retention time worked out at 763 s. The molecule `O=C(Nc1cccc(-c2cn3cccnc3n2)c1)c1ccc(Cl)cc1` displayed an RP-LC retention time of 739 s. Then `COc1cc(C(C)=O)ccc1OCC(O)CN1CCN(c2cccc(C)c2C)CC1` (centres undefined), with 597 s; and `CCN1C(=O)c2cc(S(=O)(=O)NCc3cccc(Cl)c3)ccc2Oc2cccnc21`, with 1030 s. With `Cc1nc(-c2ccccc2F)sc1C(=O)N1CCCC1`, the RP-LC retention time is 880 s. Under `Cc1nn(-c2ccccc2)c(C)c1S(=O)(=O)N1CCC(C(=O)Nc2ccc(F)cc2Cl)CC1` stands 1000 s; under `O=C1NC2(CCN(C(=O)c3ccccc3F)CC2)Nc2c(Cl)cccc21`, 742 s. Molecule `Cn1nc(-c2nnc(-c3ccc(F)cc3)o2)c2c1CCN(S(=O)(=O)c1cccc(Cl)c1)C2` showed an RP-LC retention time of 987 s.

In turn, `Cc1[nH]c(C(=O)N2CCCC(C(=O)NCCN3CCN(C)CC3)C2)c(C)c1C(=O)OC(C)C` (centres undefined) returned an RP-LC retention time of 598 s. Consider `COCCN1C(=O)CCc2cc(NS(=O)(=O)c3ccccc3Cl)ccc21`, for which the RP-LC retention time came out at 771 s.

As to `O=C(NCCc1ccccc1)N1CCC(c2noc(-c3ccccc3)n2)C1` (centres undefined), the RP-LC retention time amounted to 914 s.

`O=S(=O)(c1ccccc1)c1cnc2c(N3CCNCC3)cccc2c1` showed an RP-LC retention time of 691 s. As to `CCC1=NS(=O)(=O)c2cccnc2N1c1ccc(Br)c(C)c1`, the RP-LC retention time stood at 986 s. Then `CC(C)(C)NCC(O)c1cc(Cl)c(N)c(C(F)(F)F)c1` (centres undefined), with 708 s; and `COc1ccc(S(=O)(=O)N2CCCC(C(=O)NC3CCCC3)C2)cc1OC` (centres undefined), with 802 s; and `CCOc1ccccc1-c1noc(Cn2c(=O)n(-c3ccc(Cl)cc3)c(=O)c3sccc32)n1`, with 1030 s.

As for `Cc1onc(-c2ccccc2Cl)c1C(=O)NCCn1nc(-c2ccccc2)n(C)c1=O`, the RP-LC retention time worked out at 708 s. For `CC(C)C(=O)c1c(C(C)C)nn2ccccc12`, the RP-LC retention time amounted to 1010 s. `CCc1ccc(NC(=O)N2CCC3(CC2)NC(=O)c2ccc(Cl)cc2N3CC)cc1` registered an RP-LC retention time of 968 s. `O=C(Nc1cccc(F)c1)N1C[C@H]2C[C@H](C1)[C@H]1CCCC(=O)N1C2` registered an RP-LC retention time of 660 s. As for `CCOC(=O)N1CCC(NC(=O)CCc2cc3cc(C)ccc3[nH]c2=O)CC1`, the RP-LC retention time worked out at 677 s. Turning to `COc1ccc(C(C)NC(=O)c2cc(-c3ccccc3)cn2C)cc1OC` (centres undefined), the RP-LC retention time was 963 s. Under `Cc1cccc(OCc2nc(-c3ccc(NS(C)(=O)=O)cc3)no2)c1` stands 801 s; under `O=C(Cn1nc2c3cc(-c4ccc(F)cc4)nn3ccn2c1=O)N1CCCC1`, 758 s.

The molecule `O=C(CN1CCN(Cc2ccc(F)cc2)C1=O)N1CCN(c2ccccc2)CC1` showed an RP-LC retention time of 824 s. Then `Cc1ccc(CNC(=O)N2CCC3(CC2)NC(=O)c2ccc(F)cc2N3C)cc1`, with 761 s; and `CCN1CCN(C(=O)c2cnn(-c3cc(-c4nc(C5CC5)no4)ccn3)c2C)CC1`, with 641 s. `O=C(c1ccoc1)N1CC(Oc2cccc(-c3nc(-c4ccccc4)no3)c2)C1` displayed an RP-LC retention time of 1070 s. With `O=C(CCc1ccccc1)Nc1c(-c2ccccc2)nc2ccccn12`, the RP-LC retention time was determined as 663 s. Under `CCOCCCNC(=O)C1CCCN(c2nnc(C)c3c(C)n(-c4ccc(C)cc4)nc23)C1` (centres undefined) stands 687 s; under `CCOC(=O)CNC(=O)CSc1ccc2nnc(-c3cccc(F)c3)n2n1`, 625 s; under `CC(C)(C)NCC(O)c1ccccc1Cl` (centres undefined), 650 s. Regarding `CCOC(=O)N1CCN(S(=O)(=O)c2cn(C)c(=O)n(C)c2=O)CC1`, the RP-LC retention time was determined as 621 s. For the molecule `O=C(Cn1ccc2sccc2c1=O)Nc1cc(F)cc(F)c1`, the RP-LC retention time came out at 784 s. With `Cc1cc(=O)n(CC(=O)Nc2cccc(Cl)c2)c(N2CCCCC2)n1`, the RP-LC retention time is 701 s. Under `CCOC(=O)c1[nH]c(C)c(S(=O)(=O)N2CCN(c3ccccn3)CC2)c1C` stands 640 s; under `COc1cc(NC(=O)N2CCN(c3cc(C)nc(N4CCCC4)n3)CC2)cc(OC)c1OC`, 634 s; under `CCCNC(=O)C1CCN(c2ccc(SCC(=O)Nc3cc(OC)ccc3OC)nn2)CC1`, 662 s. Take `CCNc1nc(NC(C)C)nc(-n2cnc(SC)n2)n1`: the RP-LC retention time was determined as 897 s. `COc1ccc(-c2cn3c(CC(=O)N4CCN(c5ccccc5OC)CC4)csc3n2)cc1OC` showed an RP-LC retention time of 698 s.

`CCn1ccc(C(=O)N2CCC(Cc3nc4cccnc4n3CC(C)C)C2)n1` (centres undefined) came in with an RP-LC retention time of 619 s.

The molecule `O=C(c1ccco1)N1CCC[C@H]1c1nc(-c2ccccc2)n[nH]1` yielded an RP-LC retention time of 652 s. The molecule `COc1ccc(N2C=C(C#N)S(=O)(=O)c3ccc(C)cc32)c(OC)c1` displayed an RP-LC retention time of 930 s. `N#Cc1ccccc1CN1CCC2(CCC2N2CCOCC2)CC1` (centres undefined) yielded an RP-LC retention time of 690 s. Then `CCC(Oc1ccc(=O)n(-c2ccc(F)cc2)n1)C(=O)NCc1ccco1` (centres undefined), with 733 s; and `CCOCCCNC(=O)N1CCN(c2nc3ccccc3n(Cc3ccc(C)cc3)c2=O)CC1`, with 1010 s. The molecule `COCCN1C(=O)[C@H]2CN(Cc3cccc(C#N)c3)C[C@H]2C1=O` showed an RP-LC retention time of 607 s.

Take `Cn1cnc(S(=O)(=O)N2CCC(C(=O)NCCc3ccccc3)CC2)c1`: the RP-LC retention time came to 663 s. Then `CC(C)c1ccc(-n2nc(N3CCN(C(=O)c4cc5ccccc5[nH]4)CC3)ccc2=O)cc1`, with 998 s; and `Cc1cccc2nnc(N3CCCC(C(=O)N4CCN(C5CCCCC5)CC4)C3)n12` (centres undefined), with 570 s; and `O=c1c2cc(-c3ccccc3)nn2ccn1Cc1noc(CN2CCOCC2)n1`, with 681 s.

`O=C(C1=CN(c2cc(Cl)cc(Cl)c2)c2cc(F)ccc2S1(=O)=O)N1CCOCC1` yielded an RP-LC retention time of 875 s.

`CCOc1ccc(NC(=O)Cn2cnc3nc(N4CCCC(C(=O)NC5CC5)C4)sc3c2=O)cc1` (centres undefined) showed an RP-LC retention time of 675 s. Regarding `COc1cc(CNC(=O)C2CCCN(c3nccc(C)n3)C2)cc(OC)c1OC` (centres undefined), the RP-LC retention time was 655 s.

These data come from the METLIN SMRT retention time set (Domingo-Almenara et al. 2019).
